Reference: ChEMBL document CHEMBL4616663, “Resorcylic Acid Lactones from an Ilyonectria sp” (J Nat Prod, 2020)
The source made the active and inactive calls. No cut-off for these calls is given here.

How the values were obtained:
A549 [1] = test: Cytotoxicity against human A549 cells at 50 uM by MTT assay; type: functional, cell-based
769-P = test: Cytotoxicity against human 769-P cells at 50 uM by MTT assay; type: functional, cell-based
T-cell = test: Immunosuppressive activity in BALB/c mouse T cells assessed as reduction in ConA-induced cell proliferation; type: functional, cell-based
B-cell line = test: Immunosuppressive activity in BALB/c mouse B cells assessed as reduction in LPS-induced cell proliferation; type: functional, cell-based
HCT-116 = test: Cytotoxicity against human HCT116 cells at 50 uM by MTT assay; type: functional, cell-based
A549 [2] = test: Cytotoxicity against TRAIL-resistant human A549 cells assessed as reduction in cell viability at 50 uM cotreated with TRAIL after 24 hrs by MTT assay relative to compound alone; type: functional
A549 [3] = test: Cytotoxicity against TRAIL-resistant human A549 cells assessed as reduction in cell viability at 15 uM cotreated with TRAIL after 24 hrs by MTT assay relative to compound alone; type: functional
A549 [4] = test: Cytotoxicity against TRAIL-resistant human A549 cells assessed as reduction in cell viability at 30 uM cotreated with TRAIL after 24 hrs by MTT assay relative to compound alone; type: functional

Row | Structure (SMILES) | Activity (A549 [1]) | Activity (769-P) | IC50 (T-cell) [µM] | IC50 (B-cell line) [µM] | Activity (HCT-116) | Activity (A549 [2]) [%] | Activity (A549 [3]) [%] | Activity (A549 [4]) [%]
1 | C[C@H]1OC(=O)c2c(O)cc(O)c(Cl)c2/C=C/CC/C=C/[C@@H]1O | inactive | inactive | > 25 | > 25 | inactive | – | – | –
2 | C[C@@H]1C/C=C/CCCC[C@H](O)CC(=O)Cc2c(Cl)c(O)cc(O)c2C(=O)O1 | inactive | inactive | > 25 | > 25 | inactive | 27 | – | –
3 | CO[C@@H]1C=CC=C2Cc3c(Cl)c(O)cc(O)c3C(=O)O[C@H](C)C[C@@H](O)[C@H]1O2 | inactive | inactive | > 25 | 5.5 | inactive | – | – | –
4 | C[C@@H]1C[C@@H]2O[C@H]2[C@@H]2O[C@@H]2/C=C/[C@@H](O)CC(=O)Cc2c(Cl)c(O)cc(O)c2C(=O)O1 | inactive | inactive | 1.9 | 1.1 | inactive | – | – | –
5 | C[C@@H]1C/C=C/C(=O)CCCC(=O)Cc2cc(O)cc(O)c2C(=O)O1 | inactive | inactive | > 25 | 18.5 | inactive | – | – | –
6 | C[C@H]1OC(=O)c2c(O)cc(O)cc2CC(=O)CCCC/C=C/[C@@H]1O | inactive | inactive | > 25 | > 25 | inactive | – | – | –
7 | COc1c(C)c2c(c(O)c1C/C=C(\C)CCC(=O)OCCN1CCOCC1)C(=O)OC2 [MYCOPHENOLATE MOFETIL] | – | – | – | 3.2 | – | – | – | –
8 | C[C@@H]1C/C=C/CCCC[C@@H](O)CC(=O)Cc2c(Cl)c(O)cc(O)c2C(=O)O1 | inactive | inactive | > 25 | > 25 | inactive | 26 | – | –
9 | C[C@@H]1CC[C@H](O)C(=O)CCCC(=O)Cc2c(Cl)c(O)cc(O)c2C(=O)O1 | inactive | inactive | > 25 | > 25 | inactive | – | – | –
10 | C[C@@H]1C/C=C/CC/C=C/[C@@H](O)CC(=O)Cc2c(Cl)c(O)cc(O)c2C(=O)O1 | inactive | inactive | 4.1 | 9.8 | inactive | 29 | 22 | 31
11 | C[C@@H]1C[C@@H](O)[C@@H]2CC[C@H](CC(=O)Cc3cc(O)cc(O)c3C(=O)O1)O2 | inactive | inactive | > 25 | > 25 | inactive | – | – | –
12 | C[C@@H]1C[C@@H](O)/C=C\CCCC(=O)Cc2c(Cl)c(O)cc(O)c2C(=O)O1 | inactive | inactive | > 25 | 21.9 | inactive | – | – | –
13 | C[C@@H]1CC(=O)CCC/C=C/C(=O)Cc2c(Cl)c(O)cc(O)c2C(=O)O1 | inactive | inactive | > 25 | > 25 | inactive | – | – | –
